Broadly, the IC50 is the concentration needed to halve the response being measured. Read a high IC50 as weaker potency in that assay.

Type in all cases: biochemical
Settings in all cases: HotSpot radiometric assay, 33P-ATP

In one assay the target is T1, JNK1 (Homo sapiens, UniProt P45983).
T1 construct: purchased Reaction Biology Corp
Put plainly: HotSpot Kinase Assay, JNK1. Here is the method:
(§1) The anti-JNK3 activity of compounds prepared as in the previous examples was evaluated using a Reaction Biology Corp. HotSpot Kinase Assay. Base reaction buffer was 20 mM HEPES (4-(2-hydroxyethyl)-1-piperazineethanesulfonic acid) at pH 7.5 with 10 mM MgCl2, 1 mM EGTA (ethylene glycol-bis(β-aminoethyl ether)-N,N,N′,N′-tetracetic acid), 0.02% Brij™ 35, 0.02 mg/mL BSA (bovine serum albumin), 0.1 mM Na3VO4, 2 mM DTT (dithiothreitol), and 1% DMSO. Required cofactors were added individually to each kinase reaction.
(§2) Activity against related enzymes JNK1 and P38a was further assessed using the same assay.

A further assay addresses T2, JNK3 (Homo sapiens, UniProt P53779).
T2 construct: purchased Reaction Biology Corp
The experiment in a line: HotSpot Kinase Assay (Reaction Biology Corp.), anti-JNK3 activity. How it is done:
as §1, §2

In another assay the target is T3, p38a (Homo sapiens, UniProt Q16539).
T3 construct: purchased Reaction Biology Corp
Put plainly: HotSpot Kinase Assay, P38a. How it is done:
as §1, §2

T2 sequence (P53779 whole entry): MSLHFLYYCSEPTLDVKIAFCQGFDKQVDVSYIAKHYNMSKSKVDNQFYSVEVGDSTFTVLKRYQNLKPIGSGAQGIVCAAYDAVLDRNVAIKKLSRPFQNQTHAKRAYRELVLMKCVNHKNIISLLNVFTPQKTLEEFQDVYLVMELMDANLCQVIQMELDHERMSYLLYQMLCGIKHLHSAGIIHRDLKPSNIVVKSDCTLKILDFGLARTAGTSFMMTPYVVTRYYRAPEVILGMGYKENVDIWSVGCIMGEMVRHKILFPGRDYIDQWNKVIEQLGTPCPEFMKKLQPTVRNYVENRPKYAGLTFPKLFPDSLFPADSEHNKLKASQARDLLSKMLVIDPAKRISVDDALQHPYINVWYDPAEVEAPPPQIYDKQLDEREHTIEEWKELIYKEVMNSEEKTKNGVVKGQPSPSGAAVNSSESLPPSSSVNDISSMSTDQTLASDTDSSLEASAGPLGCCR
T1 sequence (P45983 whole entry): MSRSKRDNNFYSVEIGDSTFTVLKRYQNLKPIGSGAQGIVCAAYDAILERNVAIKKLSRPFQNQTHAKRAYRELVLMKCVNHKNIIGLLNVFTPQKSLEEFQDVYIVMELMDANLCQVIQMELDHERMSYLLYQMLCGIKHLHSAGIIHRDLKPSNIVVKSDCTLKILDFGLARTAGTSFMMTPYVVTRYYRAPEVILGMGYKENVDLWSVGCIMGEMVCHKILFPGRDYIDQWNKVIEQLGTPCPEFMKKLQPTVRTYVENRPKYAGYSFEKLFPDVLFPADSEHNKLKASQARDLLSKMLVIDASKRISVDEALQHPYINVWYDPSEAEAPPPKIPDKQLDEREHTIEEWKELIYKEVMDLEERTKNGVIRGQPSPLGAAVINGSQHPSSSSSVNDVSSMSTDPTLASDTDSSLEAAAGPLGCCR
T3 sequence (Q16539 whole entry): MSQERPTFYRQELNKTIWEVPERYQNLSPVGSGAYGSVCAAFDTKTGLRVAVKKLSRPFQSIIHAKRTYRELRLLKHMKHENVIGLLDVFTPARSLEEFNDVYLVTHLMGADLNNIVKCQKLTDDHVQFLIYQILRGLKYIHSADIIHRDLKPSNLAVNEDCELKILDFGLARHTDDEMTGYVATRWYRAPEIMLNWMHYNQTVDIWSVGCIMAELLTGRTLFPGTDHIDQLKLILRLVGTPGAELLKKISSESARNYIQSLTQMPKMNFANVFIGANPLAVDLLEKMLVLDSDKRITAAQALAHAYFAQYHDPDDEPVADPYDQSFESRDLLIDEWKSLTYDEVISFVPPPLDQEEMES

On to `O=C(NC1COC1)c1cc(-n2ncc3cc(Oc4ccccc4Cl)ccc32)cs1` [Compound 11, 4-(5-(2-chlorophenoxy)-1H-indazol-1-yl)-N-(oxetan-3-yl)thiophene-2-carboxamide], for which the values for the IC50 at JNK1, against JNK3 and at p38a were above 1000 nM, below 200 nM and above 1000 nM, respectively.

On to `COCC(COC)NC(=O)c1cc(-n2ncc3cc(Oc4ccccc4Cl)ncc32)cs1` [Compound 12, 4-(5-(2-chlorophenoxy)-1H-pyrazolo[3,4-c]pyridin-1-yl)-N-(1,3-dimethoxypropan-2-yl)thiophene-2-carboxamide], for which the IC50 was above 1000 nM on JNK1, 200 to 1000 nM on JNK3 and above 1000 nM at p38a.

With `[2H]C([2H])([2H])N1CC[C@@H](NC(=O)c2cc(-n3ncc4cc(Oc5ccccc5Cl)ccc43)cs2)C1` [Compound 13, (R)-4-(5-(2-chlorophenoxy)-1H-indazol-1-yl)-N-(1-(methyl-d3)pyrrolidin-3-yl)thiophene-2-carboxamide], the IC50 against JNK1 was above 1000 nM; against JNK3, below 200 nM; on p38a, 200 to 1000 nM.

`COCCNC(=O)c1cc(-n2ncc3cc(Oc4ccccc4Cl)ncc32)cs1` [Compound 14, 4-(5-(2-chlorophenoxy)-1H-pyrazolo[3,4-c]pyridin-1-yl)-N-(2-methoxyethyl)thiophene-2-carboxamide]: the IC50 against JNK1 is above 1000 nM; at JNK3, below 200 nM; on p38a it was above 1000 nM.

As to `CC(C)NC(=O)c1cc(-n2ncc3cc(Nc4ccccc4Cl)ncc32)cs1` [Compound 16, 4-(5-((2-chlorophenyl)amino)-1H-pyrazolo[3,4-c]pyridin-1-yl)-N-isopropylthiophene-2-carboxamide], the IC50 on JNK1 was 200 to 1000 nM; at JNK3 it was below 200 nM; at p38a it was 200 to 1000 nM.

As for `COCCNC(=O)c1cc(-n2ncc3cc(Nc4ccccc4Cl)ncc32)cs1` [Compound 17, 4-(5-((2-chlorophenyl)amino)-1H-pyrazolo[3,4-c]pyridin-1-yl)-N-(2-methoxyethyl)thiophene-2-carboxamide], the values for the IC50 at JNK1, against JNK3 and on p38a were 200 to 1000 nM, below 200 nM and below 200 nM, respectively.

For the compound `O=C(NC1CNC1)c1cc(-n2ncc3nc(Nc4ccccc4Cl)ncc32)cs1` [Compound 27, N-(azetidin-3-yl)-4-(5-((2-chlorophenyl)amino)-1H-pyrazolo[4,3-d]pyrimidin-1-yl)thiophene-2-carboxamide], the IC50 against JNK1, at JNK3 and against p38a was above 1000 nM each time.

With `O=C(NC1CC1)c1cc(-n2ncc3cc(Nc4ccccc4Cl)c(F)cc32)cs1` [Compound 31, 4-(5-((2-chlorophenyl)amino)-6-fluoro-1H-indazol-1-yl)-N-cyclopropylthiophene-2-carboxamide], the IC50 at JNK1, against JNK3 and at p38a was below 200 nM throughout.

As to `O=C(N[C@H]1CCOC1)c1cc(-n2ncc3cc(Nc4ccccc4Cl)c(F)cc32)cs1` [Compound 32, (S)-4-(5-((2-chlorophenyl)amino)-6-fluoro-1H-indazol-1-yl)-N-(tetrahydrofuran-3-yl)thiophene-2-carboxamide], the IC50 against JNK1, on JNK3 and at p38a was below 200 nM in each case.

For `O=C(NC1COC1)c1cc(-n2ncc3cc(Nc4ccccc4Cl)c(F)cc32)cs1` [Compound 34, 4-(5-((2-chlorophenyl)amino)-6-fluoro-1H-indazol-1-yl)-N-(oxetan-3-yl)thiophene-2-carboxamide], the half-inhibitory concentration (IC50) on JNK1 was above 1000 nM; against JNK3, below 200 nM; on p38a, 200 to 1000 nM.

For the compound `CC(C)N1CC[C@@H](NC(=O)c2cc(-n3ncc4cc(Nc5ccccc5Cl)ccc43)cs2)C1` [Compound 35, (R)-4-(5-((2-chlorophenyl)amino)-1H-indazol-1-yl)-N-(1-isopropylpyrrolidin-3-yl)thiophene-2-carboxamide], the values for the 50% inhibitory concentration (IC50) against JNK1, on JNK3 and against p38a were 200 to 1000 nM, below 200 nM and 200 to 1000 nM, respectively.

With `COCCNC(=O)c1cc(-n2ncc3cc(Nc4ccccc4Cl)c(F)cc32)cs1` [Compound 37, 4-(5-((2-chlorophenyl)amino)-6-fluoro-1H-indazol-1-yl)-N-(2-methoxyethyl)thiophene-2-carboxamide], the half-maximal inhibitory concentration (IC50) at JNK1, on JNK3 and on p38a was below 200 nM in each case.

Consider `O=C(NC1CCOCC1)c1cc(-n2ncc3cc(Nc4ccccc4Cl)c(F)cc32)cs1` [Compound 38, 4-(5-((2-chlorophenyl)amino)-6-fluoro-1H-indazol-1-yl)-N-(tetrahydro-2H-pyran-4-yl)thiophene-2-carboxamide], for which the IC50 at JNK1, on JNK3 and on p38a was below 200 nM in each case.

Turning to `O=C(NCC(F)F)c1cc(-n2ncc3cc(Nc4ccccc4Cl)c(F)cc32)cs1` [Compound 39, 4-(5-((2-chlorophenyl)amino)-6-fluoro-1H-indazol-1-yl)-N-(2,2-difluoroethyl)thiophene-2-carboxamide], the IC50 at JNK1, against JNK3 and against p38a was below 200 nM each time.

Regarding `CC(=O)N1CC[C@H](NC(=O)c2cc(-n3ncc4cc(Nc5ccccc5Cl)c(F)cc43)cs2)C1` [Compound 40, (S)—N-(1-acetylpyrrolidin-3-yl)-4-(5-((2-chlorophenyl)amino)-6-fluoro-1H-indazol-1-yl)thiophene-2-carboxamide], the IC50 on JNK1 was 200 to 1000 nM; against JNK3, below 200 nM; against p38a it was below 200 nM.

As for `CC(C)NC(=O)c1cc(-n2ncc3cc(Nc4ccccc4Cl)c(F)cc32)cs1` [Compound 44, 4-(5-((2-chlorophenyl)amino)-6-fluoro-1H-indazol-1-yl)-N-isopropylthiophene-2-carboxamide], the IC50 against JNK1, against JNK3 and on p38a was below 200 nM throughout.

Take `CC(C)NC(=O)c1cc(-n2ncc3nc(Oc4ccccc4Cl)ncc32)cs1` [Compound 47, 4-(5-(2-chlorophenoxy)-1H-pyrazolo[4,3-d]pyrimidin-1-yl)-N-isopropylthiophene-2-carboxamide]: the IC50 against JNK1, at JNK3 and on p38a was above 1000 nM throughout.

Take `COCC(COC)NC(=O)c1cc(-n2ncc3nc(Oc4ccccc4Cl)ccc32)cs1` [Compound 48, 4-(5-(2-chlorophenoxy)-1H-pyrazolo[4,3-b]pyridin-1-yl)-N-(1,3-dimethoxypropan-2-yl)thiophene-2-carboxamide]: the half-maximal inhibitory concentration (IC50) on JNK1, against JNK3 and against p38a was above 1000 nM throughout.

For the compound `CNC(=O)c1cc(-n2ncc3nc(Oc4ccccc4Cl)ccc32)cs1` [Compound 49, 4-(5-(2-chlorophenoxy)-1H-pyrazolo[4,3-b]pyridin-1-yl)-N-methylthiophene-2-carboxamide], the IC50 at JNK1 was above 1000 nM; against JNK3, 200 to 1000 nM; at p38a, 200 to 1000 nM.

Consider `O=C(NC1COC1)c1cc(-n2ncc3nc(Nc4ccccc4Cl)ccc32)cs1` [Compound 52, 4-(5-((2-chlorophenyl)amino)-1H-pyrazolo[4,3-b]pyridin-1-yl)-N-(oxetan-3-yl)thiophene-2-carboxamide], for which the results for the IC50 against JNK1, against JNK3 and against p38a were above 1000 nM, below 200 nM and 200 to 1000 nM, respectively.

`O=C(NC(CO)CO)c1cc(-n2ncc3nc(Nc4ccccc4Cl)ccc32)cs1` [Compound 53, 4-(5-((2-chlorophenyl)amino)-1H-pyrazolo[4,3-b]pyridin-1-yl)-N-(1,3-dihydroxypropan-2-yl)thiophene-2-carboxamide]: the IC50 at JNK1 is above 1000 nM; against JNK3, below 200 nM; against p38a, above 1000 nM.

On to `CC(C)NC(=O)c1cc(-n2ncc3nc(Nc4ccccc4Cl)ccc32)cs1` [Compound 54, 4-(5-((2-chlorophenyl)amino)-1H-pyrazolo[4,3-b]pyridin-1-yl)-N-isopropylthiophene-2-carboxamide], for which the figures for the half-inhibitory concentration (IC50) at JNK1, at JNK3 and at p38a were 200 to 1000 nM, below 200 nM and 200 to 1000 nM, respectively.

For `COCCNC(=O)c1cc(-n2ncc3nc(Nc4ccccc4Cl)ccc32)cs1` [Compound 55, 4-(5-((2-chlorophenyl)amino)-1H-pyrazolo[4,3-b]pyridin-1-yl)-N-(2-methoxyethyl)thiophene-2-carboxamide], the concentration for half-maximal inhibition (IC50) on JNK1 was above 1000 nM; at JNK3 it was below 200 nM; at p38a, 200 to 1000 nM.

For the compound `COCCNC(=O)c1cc(-n2ncc3nc(Oc4ccccc4Cl)ccc32)cs1` [Compound 56, 4-(5-(2-chlorophenoxy)-1H-pyrazolo[4,3-b]pyridin-1-yl)-N-(2-methoxyethyl)thiophene-2-carboxamide], the results for the 50% inhibitory concentration (IC50) at JNK1, at JNK3 and against p38a were 200 to 1000 nM, below 200 nM and 200 to 1000 nM, respectively.

For the compound `CNC(=O)c1cc(-n2ncc3cc(Oc4ccccc4Cl)cnc32)cs1` [Compound 64, 4-(5-(2-chlorophenoxy)-1H-pyrazolo[3,4-b]pyridin-1-yl)-N-methylthiophene-2-carboxamide], the IC50 at JNK1 is 200 to 1000 nM; on JNK3, below 200 nM; on p38a, 200 to 1000 nM.

On to `CNC(=O)c1cc(-n2ncc3cc(Nc4ccccc4Cl)cnc32)c(C)s1` [Compound 65, 4-(5-((2-chlorophenyl)amino)-1H-pyrazolo[3,4-b]pyridin-1-yl)-N,5-dimethylthiophene-2-carboxamide], for which the 50% inhibitory concentration (IC50) was 200 to 1000 nM at JNK1, below 200 nM on JNK3 and below 200 nM against p38a.

These data come from patent US12448375B2, “Kinase inhibitors for the treatment of neurodegenerative diseases” (Ohio State Innovation Foundation, priority 2019, dated 2025).
